Source: patent US9815774B1, “Hydrodabcyl” (Universität Bayreuth, priority 2014, dated 2017)
Converted amounts (≈) assume the structure as drawn. “And” between values parts separate entries of the source, which are not always exact repeats. Identical values can stand only once. Like-named read-outs stand apart in the source and are kept apart here.

Columns and labels:
[1] = tested on: HT-29; assay: Cytotoxicity assay, HT-29; type: cell-based; details: Homo sapiens, incubation for 72 hours, 5 to 100 μM
Procedure: (§1) Three different cell culture types were incubated with various concentrations (from 5 to 100 μM) of Hydrodabcyl.

[2] = Absorption spectra; type: physicochemical; details: for ε (molar absorbance): 20° C.
Procedure: Double beam Perkin Elmer Lambda 750 UV/Vis spectrophotometer equipped with a thermostated cuvette holder was used to record the absorption spectra over a wavelength range 200-800 nm at 20° C.
The quartz cuvettes with 1 cm light path used were from Hellma.

[3] = Stability under light exposure; type: physicochemical; details: for effect of light exposure on absorption spectrum: 17.5 μM in DMSO, 5 minutes, 60 W tungsten lamp; for absorbance under 2-hour continuous irradiation at absorption maximum: spectrophotometer beam, 7200 s
Procedure: The effect of exposure to the light beam of a commercial spectrophotometer was tested to mimic the common experimental condition.
One solution of dabcyl and one of Hydrodabcyl, both at 17.5 μM in DMSO prepared in the dark, were exposed for 5 minutes to the light of a common 60 W tungsten lamp.

[4] = tested on: CHF; assay: Cytotoxicity assay, CHF; type: cell-based; details: incubation for 72 hours, 5 to 100 μM
Procedure: as §1

[5] = Solubility tests in water and buffered aqueous solutions; type: physicochemical; details: for appearance in water: about 7 μM
[6] = tested on: oocytes of Xenopus laevis; assay: Influence on embryogenesis of injected oocytes; type: in vivo; details: conclusion from Table 2
Procedure: Two sorts of labelled molecules were injected into oocytes of Xenopus laevis: • A molecule labelled with monobromobimane (mBBr; a fluorescent dye, which emits light in the absorption spectrum of Hydrodabcyl); the molecule is called Substrate-Bim • A molecule labelled with mBBr and Hydrodabcyl (a fluorescence quencher); the molecule is called Bim-Substrate-Hydrodabcyl The effect on embryogenesis of the molecules injected into the oocytes as described in Example 5 was observed.

[7] = tested on: circular and linear double-stranded DNA pBR322; assay: Electrophoretic Mobility Shift Assay (EMSA); type: binding; details: 24 h incubation, 0, 5, 10, 25, 50 μM, agarose gel
Procedure: The DNA was incubated for 24 hours with various concentrations (0, 5, 10, 25, 50 μM) of (a) doxorubicin and (b) Hydrodabcyl. FIGS. 6a and 6b show the ethidium bromide staining of DNA separated by agarose gel electrophoresis. […] The DNA was incubated for 24 hours with various concentrations (0, 5, 10, 25, 50 μM) of (a) doxorubicin and (b) Hydrodabcyl. FIGS. 7a and 7b show the ethidium bromide staining of DNA separated by agarose gel electrophoresis. […] Circular and linear double-stranded DNA was incubated with various concentrations of Hydrodabcyl and doxorubicin (a known intercalating substance). After 24 h of incubation time, agarose gel electrophoresis was carried out.

[8] = tested on: EaHy.926; assay: Cytotoxicity assay, EaHy.926; type: cell-based; details: Homo sapiens, EA.hy 926, incubation for 72 hours, 5 to 100 μM
Procedure: as §1

[9] = Solubility tests in water and buffered aqueous solutions; type: physicochemical; details: for solubility: 50 mM NaP buffer, pH 8.0
From the text: The excellent solubility of the bare chromophore in aqueous solution already confers to Hydrodabcyl several practical advantages, e.g., aqueous solutions of Hydrodabcyl are easier to prepare and glassware can be more readily cleansed. Nevertheless, in most of applications the chromophores are linked to the molecules of interest. For example, to monitor protease activity chromophores are usually linked to the peptidic substrate. Both dabcyl and Hydrodabcyl can be easily coupled to an amino group through a standard amide bond formation. […] To investigate the behavior of dabcyl and Hydrodabcyl coupled to an amino acid bearing an amino group, dabcyl and Hydrodabcyl were linked to the amino group of a Lys side chain, and the solubility of the Lys-dabcyl and Lys-Hydrodabcyl moieties in a buffered aqueous solution at pH 8 were tested.
Buffered solutions (50 mM sodium phosphate) have been prepared at four different pH: 8.0, 7.0, 6.0 and 5.5, respectively. The amount of Hydrodabcyl required to reach a concentration of 5 mM was immersed in each buffer solution and kept for 1 h at 30° C. in an ultrasonic bath. […] To confirm its solubility, the absorbance of Hydrodabcyl was monitored as function of its concentration. Since the stock solution was too concentrated to be measured directly, three diluted solutions with different concentrations (10 μM, 20 μM and 30 μM) were prepared from each stock solution at pH 8.0, pH 7.0 and pH 6.0. The aliquots have been taken from different part of the volume of the stock solution to test the homogeneity.
To reach complete solubility at pH<6.0, the pH of the stock solution (5 mM range) at pH 7.0 was decreased at the desired value with few drops of 5M HCl. Following gradual acidification of the medium the mM solution of Hydrodabcyl remained clear till pH 4.3. […] At pH<4.3 Hydrodabcyl precipitates.

[10] = water, reported [8]; cited from earlier work
[11] = sodium phosphate buffer, aqueous buffer, thermodynamic from solid, read-out: Solubility

## CN(C)c1cc(O)c(/N=N/c2ccc(C(=O)O)c(O)c2)c(O)c1 [Hydrodabcyl, 4-((4′-(dimethylamino)2′,6′-dihydroxyphenyl)azo)2-hydroxybenzoic acid]
[1]
  IC50: > 50 µM
[2]; 50 mM sodium phosphate buffer pH=8.0, 2×10^−5 M, at 445 nm
  ε (molar absorbance): 43000 ± 1000 L/mol/cm
[2]; 2×10^−5 M in DMSO at 20° C.
  λmax: 470 nm
[2]; DMSO
  ε470 (molar absorbance): 37000 M⁻¹ cm⁻¹
[2]; DMSO, 2×10^−5 M, at 470 nm
  ε (molar absorbance): 37000 ± 1000 L/mol/cm
[2]; aqueous solution
  ε445 (molar absorbance): 43000 M⁻¹ cm⁻¹
[2]; aqueous solution, 50 mM sodium phosphate buffer pH=8.0, 20° C.
  λmax: 445 nm
[3]
  effect of light exposure on absorption spectrum: no effect on the absorption spectrum
[3]; DMSO, 20° C.
  absorbance under 2-hour continuous irradiation at absorption maximum: constant signal
[4]
  IC50: > 100 µM
[5]; thermodynamic from solid, Water, 20° C., pH = 4.5, read-out: Solubility
  solubility: 571 µM (≈ 181 µg/mL)
[5]; water
  appearance in water: clear solution
[6]
  influence on embryogenesis: does not influence embryogenesis
[7]
  shift of DNA bands / intercalation into DNA: does not intercalate or bind to the DNA
[8]
  IC50: > 50 µM
[9]; 50 mM sodium phosphate pH 5.5, 1 h at 30° C. ultrasonic bath
  dissolution at 5 mM, direct preparation: not completely soluble
[9]; 50 mM sodium phosphate pH 6.0, 1 h at 30° C. ultrasonic bath
  dissolution at 5 mM, direct preparation: Clear solutions
[9]; 50 mM sodium phosphate pH 7.0, 1 h at 30° C. ultrasonic bath
  dissolution at 5 mM, direct preparation: Clear solutions
[9]; 50 mM sodium phosphate pH 8.0, 1 h at 30° C. ultrasonic bath
  dissolution at 5 mM, direct preparation: Clear solutions
[9]; aqueous buffer, thermodynamic from solid, buffered aqueous solution at pH 8, read-out: concentration of saturated solution
  solubility thermodynamic: 25000 µM (≈ 7930 µg/mL)
[9]; [11]
  solubility: 25400 µM (≈ 8060 µg/mL)

## NCCCC[C@H](N)C(=O)O [L-Lys, reference compound]
[5]; water, converted from 5.8 g per 1 kg
  solubility: about 40 mM
[10]
  solubility: 5.8 g per 1 kg of water

## CN(C)c1ccc(/N=N/c2ccc(C(=O)O)cc2)cc1 [dabcyl, 4-(4′-dimethylamino-phenylazo)benzoic acid]
[2]; 2×10^−5 M in DMSO at 20° C.
  λmax: 451 nm
[3]
  effect of light exposure on absorption spectrum: strongly modify the absorption spectrum
[3]; DMSO, 20° C.
  absorbance under 2-hour continuous irradiation at absorption maximum: constant signal
[3]; after 5 min 60 W tungsten lamp, DMSO, 20° C.
  time in the dark to recover original spectrum: 10 min
[5]; water
  appearance in water: precipitation
[9]; [11]
  solubility: 541 µM (≈ 146 µg/mL)

## COc1cccc2c1C(=O)c1c(O)c3c(c(O)c1C2=O)C[C@@](O)(C(=O)CO)C[C@@H]3O[C@H]1C[C@H](N)[C@H](O)[C@H](C)O1 [doxorubicin, reference compound]
[7]
  shift of DNA bands / intercalation into DNA: shift of the DNA bands with increasing doxorubicin concentration

## CN(C)c1ccc(N=Nc2ccc(C(=O)NCCCCC(N)C(=O)O)cc2)cc1 (stereo not shown) [Lys-dabcyl, reference compound]
[9]
  solubility: 7.6 µM and 7.62 µM
